Assay results from ChEMBL document CHEMBL1201862, “PubChem BioAssay data set” (2004).
Where “and” joins values, the source holds several entries; their conditions need not be identical. Equal values may be shown once.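 Grown in 96-well plates, cells were treated for 48 hours with each compound at five concentrations. Insufficient inhibition: endpoint recorded as highest concentration tested. Abbreviation: GI50, concentration required for 50% inhibition of growth.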 Calls of active or inactive are those of the source. Rule as the data show it: active = GI50 up to about 1.1 µM and inactive = higher.

Assays:
Experiment in all cases: NCI tumour cell line growth inhibition, 48 h
[1] = tested on: HOP-62
[2] = tested on: CAKI-1
[3] = tested on: COLO 205
[4] = tested on: NCI-H226
[5] = tested on: SN12C
[6] = tested on: OVCAR-5
[7] = tested on: SR
[8] = tested on: HCT-15
[9] = tested on: MOLT-4
[10] = tested on: HT-29
[11] = tested on: SK-MEL-2
[12] = tested on: 786-0
[13] = tested on: IGROV-1
[14] = tested on: SF-539
[15] = tested on: SK-OV-3
[16] = tested on: UO-31
[17] = tested on: SK-MEL-28
[18] = tested on: K562
[19] = tested on: SK-MEL-5
[20] = tested on: A498

Compound | GI50 [1] | GI50 [2] | GI50 [3] | GI50 [4] | GI50 [5] | GI50 [6] | GI50 [7] | GI50 [8] | GI50 [9] | GI50 [10] | GI50 [11] | GI50 [12] | GI50 [13] | GI50 [14] | GI50 [15] | GI50 [16] | GI50 [17] | GI50 [18] | GI50 [19] | GI50 [20]
Cn1c(=O)c2c(nc(C[N+]3([O-])CCOCC3)n2C)n(C)c1=O | > 100 µM (inactive) | 36.9 µM (inactive) | > 100 µM (inactive) | > 100 µM (inactive) | > 100 µM (inactive) | > 100 µM (inactive) | > 100 µM (inactive) | > 100 µM | > 100 µM (inactive) | > 100 µM (inactive) | > 100 µM (inactive) | > 100 µM (inactive) | > 100 µM (inactive) | > 100 µM (inactive) | > 100 µM (inactive) | > 100 µM (inactive) | > 100 µM (inactive) | > 100 µM (inactive) | > 100 µM (inactive) | –
c1csc(-c2sc(-c3ccsc3)cc2Cc2ccsc2)c1 | > 10 µM (inactive) | > 10 µM (inactive) | > 10 µM (inactive) | – | > 10 µM (inactive) | – | > 10 µM (inactive) | > 10 µM | > 10 µM (inactive) | > 10 µM (inactive) | – | > 10 µM (inactive) | > 10 µM (inactive) | – | > 10 µM (inactive) | – | > 10 µM (inactive) | > 10 µM (inactive) | > 10 µM (inactive) | –
CCOc1ccccc1-c1nc2c(s1)C(=O)c1ccccc1C2=O | 15.4 µM (inactive) | 12.2 µM (inactive) | 24.7 µM (inactive) | – | 18.4 µM (inactive) | 19.7 µM (inactive) | 6.24 µM (inactive) | 25.7 µM | 3.53 µM (inactive) | – | 15.7 µM (inactive) | 16.9 µM (inactive) | 12.2 µM (inactive) | 16.4 µM (inactive) | 15 µM (inactive) | 12.6 µM (inactive) | 16.7 µM (inactive) | 4.61 µM (inactive) | 5.12 µM (inactive) | 15.9 µM (inactive)
CC(=O)O[C@]12CCCCCC1C1(O)C(O)CCCCC12 (stereo not given in full) | > 100 µM (inactive) | – | > 100 µM (inactive) | > 100 µM (inactive) | > 100 µM (inactive) | – | > 100 µM (inactive) | > 100 µM | > 100 µM (inactive) | > 100 µM (inactive) | > 100 µM (inactive) | > 100 µM (inactive) | – | – | > 100 µM (inactive) | > 100 µM (inactive) | > 100 µM (inactive) | > 100 µM (inactive) | > 100 µM (inactive) | –
CC1(C)Cc2c(oc3ncnc(N)c23)CS1 | > 100 µM (inactive) | > 100 µM (inactive) | > 100 µM (inactive) | 89.7 µM (inactive) | > 100 µM (inactive) | > 100 µM (inactive) | > 100 µM (inactive) | > 100 µM | > 100 µM (inactive) | > 100 µM (inactive) | > 100 µM (inactive) | > 100 µM (inactive) | > 100 µM (inactive) | > 100 µM (inactive) | > 100 µM (inactive) | 49.2 µM (inactive) | – | > 100 µM (inactive) | > 100 µM (inactive) | –
O=C(NN=C1CCN(Cc2ccccc2)CC1)C(O)(c1ccccc1)c1ccccc1 | > 100 µM (inactive) | – | > 100 µM (inactive) | > 100 µM (inactive) | > 100 µM (inactive) | > 100 µM (inactive) | > 100 µM (inactive) | > 100 µM | > 100 µM (inactive) | > 100 µM (inactive) | – | > 100 µM (inactive) | > 100 µM (inactive) | > 100 µM (inactive) | > 100 µM (inactive) | > 100 µM (inactive) | > 100 µM (inactive) | – | > 100 µM (inactive) | –
Cc1cc(C)c2c(c1)CN1CN2Cc2cc(C)cc(C)c21 | 18.7 µM (inactive) | 34.1 µM (inactive) | 22.1 µM (inactive) | 26 µM (inactive) | 16.9 µM (inactive) | 55.1 µM (inactive) | 18.8 µM (inactive) | > 10 µM | 22.4 µM (inactive) | 16.3 µM (inactive) | > 10 µM (inactive) | 17.2 µM (inactive) | 23.4 µM (inactive) | > 10 µM (inactive) | 27.8 µM (inactive) | 24.4 µM (inactive) | 16.5 µM (inactive) | 27.7 µM (inactive) | – | –
Cc1nn(C(=O)c2ccncc2)c2c1C(c1ccccc1O)SC(=N)N2 (stereo not given) | > 10 µM (inactive) | > 10 µM (inactive) | > 10 µM (inactive) | > 10 µM (inactive) | > 10 µM (inactive) | > 10 µM (inactive) | > 10 µM (inactive) | > 10 µM | > 10 µM (inactive) | > 10 µM (inactive) | > 10 µM (inactive) | > 10 µM (inactive) | > 10 µM (inactive) | > 10 µM (inactive) | > 10 µM (inactive) | – | > 10 µM (inactive) | > 10 µM (inactive) | > 10 µM (inactive) | –
O=C1/C(=C/c2ccco2)NC(=S)N1CN1CCCCC1 | > 100 µM (inactive) | – | 51.4 µM (inactive) | 54.1 µM (inactive) | > 100 µM (inactive) | > 100 µM (inactive) | 34.5 µM (inactive) | 28.6 µM | > 100 µM (inactive) | 25.8 µM (inactive) | > 100 µM (inactive) | 70.1 µM (inactive) | 81.3 µM (inactive) | – | > 100 µM (inactive) | 26.9 µM (inactive) | > 100 µM (inactive) | 60.1 µM (inactive) | 57.8 µM (inactive) | > 100 µM (inactive)
O=C(CCC(=O)Nc1cccc(Cl)c1)CC(=O)c1ccc(F)cc1 | > 100 µM (inactive) | > 100 µM (inactive) | > 100 µM (inactive) | > 100 µM (inactive) | > 100 µM (inactive) | > 100 µM (inactive) | > 100 µM (inactive) | > 100 µM | > 100 µM (inactive) | > 100 µM (inactive) | > 100 µM (inactive) | > 100 µM (inactive) | – | > 100 µM (inactive) | > 100 µM (inactive) | > 100 µM (inactive) | > 100 µM (inactive) | > 100 µM (inactive) | – | –
OCC(O)C(OC1OC(CO)C(O)C(O)C1O)c1nn(-c2ccc(Cl)cc2)c2nc3cc(Cl)ccc3nc12 (stereo not given) | > 100 µM (inactive) | – | – | – | > 100 µM (inactive) | > 100 µM (inactive) | > 100 µM (inactive) | > 100 µM | > 100 µM (inactive) | > 100 µM (inactive) | – | > 100 µM (inactive) | – | > 100 µM (inactive) | > 100 µM (inactive) | > 100 µM (inactive) | > 100 µM (inactive) | > 100 µM (inactive) | – | > 100 µM (inactive)
CCSC1=N/C(=C/c2ccccc2O)C(=O)N1 | 41.1 µM (inactive) | > 100 µM (inactive) | > 100 µM (inactive) | 31.9 µM (inactive) | 67.1 µM (inactive) | > 100 µM (inactive) | 63 µM (inactive) | > 100 µM | > 100 µM (inactive) | > 100 µM (inactive) | > 100 µM (inactive) | 28.5 µM (inactive) | 87.3 µM (inactive) | 20.7 µM (inactive) | 31.7 µM (inactive) | 38.5 µM (inactive) | > 100 µM (inactive) | 61 µM (inactive) | > 100 µM (inactive) | –
O=C1C=C(c2ccccc2)NC1(c1ccccc1)c1cc(-c2ccccc2)[nH]c1-c1ccccc1 (stereo not given) | 2.21 µM (inactive) | > 100 µM (inactive) | > 100 µM (inactive) | – | > 100 µM (inactive) | – | > 100 µM (inactive) | > 100 µM | > 100 µM (inactive) | > 100 µM (inactive) | > 100 µM (inactive) | > 100 µM (inactive) | > 100 µM (inactive) | > 100 µM (inactive) | > 100 µM (inactive) | > 100 µM (inactive) | > 100 µM (inactive) | > 100 µM (inactive) | – | > 100 µM (inactive)
NC(=O)c1ccc[n+](C2=C([N-]S(=O)(=O)c3ccccc3)C(=O)c3ccccc3C2=O)c1 | 17.9 µM (inactive) | 22.1 µM (inactive) | 12.8 µM (inactive) | 14.7 µM (inactive) | 16.9 µM (inactive) | 19.1 µM (inactive) | 33.6 µM (inactive) | 23.3 µM | 25.2 µM (inactive) | 17.1 µM (inactive) | 12.8 µM (inactive) | 17.8 µM (inactive) | 11.8 µM (inactive) | 18 µM (inactive) | 29.4 µM (inactive) | 14.5 µM (inactive) | 16 µM (inactive) | 64.3 µM (inactive) | 5.51 µM (inactive) | –
O=C(O)c1ccc(Nc2nc3nn(Cc4ccccc4)cc3c(=O)s2)cc1 | > 100 µM (inactive) | – | > 100 µM (inactive) | – | > 100 µM (inactive) | > 100 µM (inactive) | > 100 µM (inactive) | > 100 µM | > 100 µM (inactive) | – | > 100 µM (inactive) | > 100 µM (inactive) | > 100 µM (inactive) | > 100 µM (inactive) | > 100 µM (inactive) | > 100 µM (inactive) | > 100 µM (inactive) | > 100 µM (inactive) | > 100 µM (inactive) | –
COC(=O)[C@@H]1CC(C(C[N+](=O)[O-])c2ccc(O[Si](C)(C)C(C)(C)C)cc2)C(=O)N1C(=O)OC(C)(C)C (stereo not given in full) | > 100 µM (inactive) | > 100 µM (inactive) and 90.4 µM (inactive) | – | – | 43.6 µM (inactive) and 69.8 µM (inactive) | > 100 µM (inactive) | 21 µM (inactive) and 33.8 µM (inactive) | – | – | – | > 100 µM (inactive) | > 100 µM (inactive) | > 100 µM (inactive) | > 100 µM (inactive) | > 100 µM (inactive) | 32.7 µM (inactive) and 60.7 µM (inactive) | > 100 µM (inactive) | 22.9 µM (inactive) and 32.4 µM (inactive) | – | > 100 µM (inactive)
